Experimental data: patent publication US7691392B2 (Kosan Biosciences Incorporated, priority 2005, dated 2010)
Several values for one entry are separate records, joined by “and”; a condition that tells them apart may be missing. Equal entries are not always repeated. Entries after “also recorded” stand apart in the source; their conditions may differ. Where two headings read alike, the source gives them in different places.

Legend:
[1] = system: Hsp70; test: Immunoblot of peripheral blood leukocytes for client proteins; assay type: in vivo, human
Description: These toxicities included hepatotoxicity and gastrointestinal toxicities. The laboratory correlates included a) surface expression of insulin-like growth factor receptor-1 (IGF-1R) and b), total expression of Akt, Hsp90 and Hsp70. […] Immunoblotting analyses were used to evaluate the total levels of Akt, Hsp90 and Hsp70. […]; and b) correlation of clinical responses to 17-AAG with the degree of modulation of the biomarkers. […] Finally, peripheral blood mononuclear cells were isolated on two occasions (the first and last infusion in Cycle 1, on Days 1 and 11) prior to and 4 hours following the infusion. Cells were examined for change in client protein expression by Western Blot. Client proteins of interest include Hsp70, RAF1, LCK and CDK4 and others as indicated.

[2] = Plasma pharmacokinetics of 17-AAG and 17-AG in the open-label dose escalating trial in MM patients; details: for Cmax: iv
Protocol: The total number of PK samples collected was approximately 110 mL of whole blood (7-8 tablespoons). If a patient experienced a potentially drug-related SAE, additional PK samples were collected. Blood was drawn from the contralateral arm to the infusion site using an indwelling catheter to avoid multiple needle sticks. […] The blood tube was inverted several times, and the tube placed in wet ice immediately pending separation of the plasma. If a catheter was used for blood collection, the fluid in the catheter was completely withdrawn prior to each sample collection and discarded. Plasma samples were kept on wet ice during collection and centrifugation. Plasma samples were split into two cryovials prior to freezing at −70° C.
The PK analysis was performed as follows. […] PK parameters were calculated on plasma concentration time data by non-compartmental analysis using Kinetica version 4.3 software (Innaphase, Champs sur Marne, France). AUC was calculated by the mixed log-linear rule: the linear rule was applied to the range where concentration was ascending and the log-linear rule was applied to the range where the concentration was descending. AUClast is the area from t=0 to tlast, the last sampling time. AUCextra is the extrapolated area from AUClast to infinity and AUCtotal=AUClast+AUCextra and is also named AUC0-∞ area under the concentration-time curve from time zero to infinity. The terminal rate constant λz was calculated on at least three points on the elimination curve with values greater than the lower limit of quantitation. […] Table 5 lists the areas, Cmax, and half-life for the metabolite 17-AG (mean±one standard deviation). […] There was no dose dependency for half-life, clearance or distributive volumes for these dose administrations.

[3] = patients treated at 56 mg/m^2 17-AAG; cited from earlier work
[4] = system: Hsp70; details: 320-450 mg/m^2/week; cited from earlier work
[5] = system: multiple myeloma; test: Anti-myeloma response (Bladé criteria) in the dose escalating trial; assay type: in vivo, human
Protocol: The method of the invention was tested in an open-label, dose escalating clinical trial.
Disease response evaluations were performed following every two cycles of treatment (approximately every 6 weeks). The determination of anti-tumor efficacy in stable or responding patients was based on objective tumor assessments made according to a standardized myeloma response assessment system.
All patients with responding tumors (CR or PR) were examined to confirm the response 6 weeks after the first documentation of response.

[6] = system: AKT; test: AKT+ cells in bone marrow aspirates
[7] = system: CDK4; details: at 24 hours; cited from earlier work
[8] = daily for 5 days every 3 weeks; cited from earlier work
[9] = system: breast cancer cells; details: exposure to 17-AAG; cited from earlier work
[10] = system: NSCLC cells; details: exposure to 17-AAG; cited from earlier work
[11] = system: leukemia cells; details: exposure to 17-AAG; cited from earlier work
[12] = system: colon adenocarcinoma cells; details: exposure to 17-AAG; cited from earlier work

## C=CCNC1=C2C[C@@H](C)C[C@H](OC)[C@H](O)[C@@H](C)/C=C(\C)[C@H](OC(N)=O)[C@@H](OC)/C=C\C=C(/C)C(=O)NC(=CC1=O)C2=O [17-AAG, 17-Allylamino-17-demethoxygeldanamycin]
[1]; 220 mg/m^2 cohort, following treatment
  Hsp70 in peripheral blood leukocytes: reactive induction of Hsp70
[1]; two patients (275 and 340 mg/m^2), prior to and 4 h after infusion, Day 1 and Day 11
  Hsp70 in PBL, immunoblot: increase of Hsp70
[2]; 220 mg/m^2, the two patients with metabolite in trough levels on Day 11
  clearance CL for 17-AAG, individual patients: 16.8 L/h/m^2 and 17.3 L/h/m^2
[2]; 220 mg/m^2 cohort
  clearance CL for 17-AAG, average for the cohort: 25.3±9.6 L/h/m^2
[2]; 17-AAG 150 mg/m^2, mean ± SD
  AUCtotal: 5,592 ± 757 ng/mL * h
  Terminal T1/2: 2.19 ± 0.58 h
  Vss: 170.9 ± 41.7 L
  clearance: 915.3 ± 113 mL/min
[2]; 17-AAG 220 mg/m^2, mean ± SD
  AUCtotal: 9,460 ± 3,788 ng/mL * h
  Vss: 139.1 ± 45.7 L
  Vz: 171.0 ± 67.1 L
[2]; 17-AAG 275 mg/m^2, mean ± SD
  AUCtotal: 13,803 ± 1,540 ng/mL * h
  Vz: 159.6 ± 54.4 L
[2]; 17-AAG 340 mg/m^2, mean ± SD
  AUCtotal: 18,997 ± 4,195 ng/mL * h
  Vz: 174.0 ± 71.2 L
[2]; 17 patients, first vs fourth infusion
  change of AUCtotal between Day 1 and Day 11: no increase in AUCtotal between Day 1 and Day 11
[2]; 150-340 mg/m^2 17-AAG
  dose proportionality of Cmax: increased in an approximately dose proportional manner
[2]; human, in vivo
  half-life: 2.19 to 3.68 h
[2]; human, in vivo, 150 mg/m2
  AUC(0-t): 5300 ng·h/mL
  Cmax: 2400 ng/mL
[2]; human, in vivo, 150 mg/m2, Vz, 17-AAG 150 mg/m^2, mean ± SD
  Vd: 170 ± 30.3 L
[2]; human, in vivo, 220 mg/m2
  AUC(0-t): 9160 ng·h/mL
  half-life: 2.68 ± 0.99 h
  Cmax: 4670 ng/mL
[2]; human, in vivo, 220 mg/m2, Clearance, 17-AAG 220 mg/m^2, mean ± SD
  clearance: 780 mL/min
[2]; human, in vivo, 275 mg/m2
  AUC(0-t): 13400 ng·h/mL
  half-life: 2.96 ± 1.34 h
  Cmax: 6820 ng/mL
[2]; human, in vivo, 275 mg/m2, Clearance, 17-AAG 275 mg/m^2, mean ± SD
  clearance: 661 mL/min
[2]; human, in vivo, 275 mg/m2, Vss, 17-AAG 275 mg/m^2, mean ± SD
  Vd: 123 ± 23.4 L
[2]; human, in vivo, 340 mg/m2
  AUC(0-t): 18700 ng·h/mL
  half-life: 3.3 ± 0.83 h
  Cmax: 9360 ng/mL
[2]; human, in vivo, 340 mg/m2, Clearance, 17-AAG 340 mg/m^2, mean ± SD
  clearance: 595 mL/min
[2]; human, in vivo, 340 mg/m2, Vss, 17-AAG 340 mg/m^2, mean ± SD
  Vd: 101 ± 27.7 L
[2]; human, in vivo, CL, present study, overall
  clearance: 792 mL/min
[2]; human, in vivo, Total systemic clearance, range of cohort means, across dose administrations
  clearance: 636 to 915 mL/min
[2]; human, in vivo, distributive volume (Vss), range of cohort means, across dose administrations
  Vd: 123 to 171 L
[2]; human, in vivo, distributive volume (Vz), range of cohort means, across dose administrations
  Vd: 160 to 204 L
[2]; present study, overall
  Vss: 144.45 ± 43.51 L
[3]
  Vz: 93 L/m^2
  clearance: 19.9 L/h/m^2
[4]
  patients with induction of the co-chaperone protein Hsp70: 8 of 9
[5]; 150 mg/m^2 twice weekly 2 of 3 weeks, four evaluable patients
  disease response: One showed a MR; also recorded: one patient had a MR, two had stable disease and one had progressive disease
[5]; 220 mg/m^2 twice weekly 2 of 3 weeks, seven evaluable patients
  disease response: four are stable disease and three are progressive disease; also recorded: four patients had stable disease and three had progressive disease
[5]; 275 mg/m^2 twice weekly 2 of 3 weeks, three evaluable patients
  disease response: all three had stable disease
[5]; 340 mg/m^2 twice weekly 2 of 3 weeks, five evaluable patients
  disease response: two patients had stable disease and three had progressive disease
[5]; 19 evaluable patients, after three or more cycles
  percent of patients with stable disease: 58%
[5]; 19 evaluable patients, all dose levels
  percent of patients with response (MR): 5%
[5]; one patient considered a PR, withdrawn for skin rash and wheezing
  reduction of urine M-protein: 90%
[5]; one patient, 150 mg/m^2, after two cycles (MR), FIG. 12
  reduction of urine M-protein: 41%
[5]; one patient, 275 mg/m^2, after eight cycles (stable disease), FIG. 13
  reduction of serum M-spike: 11%
[6]; Day 11 of treatment (more than 20% prior to treatment), p=0.057, FIG. 10
  percent of AKT+ cells over total BM cells: less than 10%
[6]; Day 11 versus prior to treatment
  decrease in percent of AKT+ cells: more than 10%
[6]; screening versus Day 11, 150 and 220 mg/m^2 doses
  Akt / pAKT in BMAs: decreased Akt; also recorded: decrease in pAKT
[7]
  patients with depletion of CDK4 in tumor biopsies: 8 out of 9
[8]
  maximum tolerated dose (MTD) and recommended Phase 2 dose: 40 mg/m^2
[9]
  effect on client proteins: depletion of steroid receptors
[10]
  effect on client proteins: depletion of erbB 1 (EGFR) and erbB2 (p185) levels
[11]
  effect on client proteins: down-regulation of intracellular Bcr-Ab1 and c-Raf proteins and reduction of Akt kinase activity
[12]
  effect on client proteins: depletion of Raf-1, c-Akt, and Erk1/2
